Values joined by “and” are separate entries in the source; they are usually repeats but may differ in a detail not shown here. Equal values may be shown once. Read-outs that look alike come from different tables or passages of the source.
What was measured:
His-tagged BCL-xL = molecular target: T1, His-tagged BCL-xL (Homo sapiens, UniProt Q07817); assay: AlphaScreen competitive binary binding, BCL-xL (biotin-BAD peptide); settings: BCL-xL Rep-2, plate row K, 1.90735e-5 uM
T1 construct: purchased Sigma-Aldrich SRP0187
Protocol: (§1) The reagents were diluted in a buffer containing 250 mM HEPES pH 7.5, 1 M NaCl, 1% BSA, and 0.05% Tween-80. His-tagged BCL-xL (0.5 nM, Cat. No. SRP0187, Sigma-Aldrich) or BCL-2 (1 nM, Cat. No. SRP0186, Sigma-Aldrich) were incubated with serial diluted 753a or 753b and 2 nM biotin-tagged BAD (biotin-[…] amino-terminal, AnaSpec, for BCL-xL) or 10 nM BIM peptides (biotin-[…] N-terminal, AnaSpec, for BCL-2) to a final volume of 40 µl in a 96-well PCR plate. […] After incubation for 2 h, 5 µl 6× His-acceptor beads (Cat. No. AL128M, PerkinElmer) were added to each well at 20 µg/ml final concentration and incubated for 1 h. Then 5 µl streptavidin-donor beads were added (Cat. No. 6760002, PerkinElmer) to each well at 20 µg/ml final concentration and incubated for 45 min. At the end of the incubation period, 17 µl of each sample was transferred in adjacent wells of 384-well proxy plate (Cat. No. 6008280, PerkinElmer). The plate was scanned using the Alpha program on Biotek’s Synergy Neo2 multimode plate reader. The inhibition constant (Ki) was calculated using the non-linear regression, one site, competitive binding, Fit Ki function on GraphPad Prism 9 software, based on experimentally determined dissociation constant (Kd) for each protein–peptide pair.

293T cells = assay: Viability (MTS) of 293T cells; type: cell-based, human; settings: normalised to own plate; for 293T cell viability, MTS absorbance 490 as percent of untreated control, mean of three wells: mean of 3 wells
Protocol: (§2) Suspension cells were treated 30 min after seeding, whereas adherent cells were allowed to adhere overnight and were then treated. Compound treatments were prepared in complete cell culture medium and 100 µl of 2× treatment-containing medium were added to each well. Complete cell culture medium without treatment was added in control wells, and wells containing medium without cells served as background. The outer wells of the 96-well plate were not used for treatment and were filled with 250 µl of PBS to reduce evaporation of medium from inner wells. Each compound and/or combination was tested at nine different concentrations with three replicates. The cell viability was measured after 72 h by tetrazolium-based MTS assay. MTS reagent (2 mg ml^–1 stock; cat. no. G1111, Promega) was freshly supplemented with phenazine methosulfate (PMS, 0.92 mg ml^–1 stock, cat. no. P9625, Sigma-Aldrich) in 20:1 ratio, and 20 µl of this mixture was added to each control and treatment well. The cells were incubated for 4 h at 37 °C and 5% CO2, and then the absorbance was recorded at 490 nm using Biotek’s Synergy Neo2 multimode plate reader (Biotek). The average absorbance value of background wells was subtracted from absorbance value of each control and treatment well, and percent cell viability ((At/A0) × 100)) was determined in each treatment well, where At is the absorbance value of the treatment well and A0 is the average absorbance value of control wells after background subtraction. The data were expressed as average percentage cell viability and fitted in non-linear regression curves using GraphPad Prism 7 (GraphPad Software, La Jolla, CA, USA).

Hela cells = assay: Viability (MTS) of Hela cells; type: cell-based, human; settings: in % (unit assumed)
Protocol: as §2

His-tagged BCL-2 = molecular target: T2, His-tagged BCL-2 (Homo sapiens, UniProt P10415); assay: AlphaScreen competitive binary binding, BCL-2 (biotin-BIM peptide); settings: for Alpha signal normalised to Maximum/Minimum (inhibition): in % (unit assumed)
T2 construct: purchased Sigma-Aldrich SRP0186
Protocol: as §1

T2 sequence (P10415 whole entry): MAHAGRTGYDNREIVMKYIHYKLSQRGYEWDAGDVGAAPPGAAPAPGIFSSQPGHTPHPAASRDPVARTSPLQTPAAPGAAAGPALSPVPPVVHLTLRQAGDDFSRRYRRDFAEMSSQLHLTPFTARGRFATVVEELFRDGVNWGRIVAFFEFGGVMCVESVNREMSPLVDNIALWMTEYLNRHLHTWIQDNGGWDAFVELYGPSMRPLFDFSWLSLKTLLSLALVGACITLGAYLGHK
T1 sequence (Q07817 whole entry): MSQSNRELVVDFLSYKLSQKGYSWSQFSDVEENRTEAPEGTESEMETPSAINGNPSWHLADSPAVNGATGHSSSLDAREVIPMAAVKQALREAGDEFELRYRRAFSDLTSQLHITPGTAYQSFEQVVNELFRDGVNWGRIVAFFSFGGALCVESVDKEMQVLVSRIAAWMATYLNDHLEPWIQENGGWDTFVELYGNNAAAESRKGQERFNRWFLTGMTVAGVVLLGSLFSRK

CC1(C)CCC(c2ccc(Cl)cc2)=C(CN2CCN(c3ccc(C(=O)NS(=O)(=O)c4ccc(N[C@H](CCN5CCOCC5)CSc5ccccc5)c(S(=O)(=O)C(F)(F)F)c4)cc3)CC2)C1 [ABT263, navitoclax]
Alpha signal (raw counts) (His-tagged BCL-xL): 1346687 and 1389856 | 293T cell viability, MTS absorbance 490 as percent of untreated control, mean of three wells (293T cells; 0.00137174 uM): 97.7794 | 293T cell viability, MTS absorbance 490 as percent of untreated control, single replicate well (293T cells; 0.00137174 uM): 98.6099 and 98.5015 | 293T cell viability, MTS absorbance 490 as percent of untreated control, mean of three wells (293T cells; 0.00411523 uM): 103.484 | 293T cell viability, MTS absorbance 490 as percent of untreated control, single replicate well (293T cells; 0.00411523 uM): 107.709 and 108.359 | 293T cell viability, MTS absorbance 490 as percent of untreated control, single replicate well (293T cells; 0.037037 uM): 116.375 and 110.092 | 293T cell viability, MTS absorbance 490 as percent of untreated control, single replicate well (293T cells; 0.111111 uM): 96.1184 and 122.874 and 120.166 | 293T cell viability, MTS absorbance 490 as percent of untreated control, single replicate well (293T cells; 0.333333 uM): 101.968 and 111.934 | 293T cell viability, MTS absorbance 490 as percent of untreated control, single replicate well (293T cells; 1 uM): 97.2017 and 104.893 | 293T cell viability, MTS absorbance 490 as percent of untreated control, single replicate well (293T cells; 3 uM): 60.8052 and 61.6718 | cell viability normalised to control wells (single replicate) (Hela cells; MTS absorbance 490, Conc 0.00137174 uM): 109.176 and 100.419 | cell viability normalised to control wells (single replicate) (Hela cells; MTS absorbance 490, Conc 0.00411523 uM): 94.0029 and 98.8584 | cell viability normalised to control wells (single replicate) (Hela cells; MTS absorbance 490, Conc 0.037037 uM): 90.3613 and 97.2977 | cell viability normalised to control wells (single replicate) (Hela cells; MTS absorbance 490, Conc 0.111111 uM): 79.4364 and 85.7659 and 104.581 | cell viability normalised to control wells (single replicate) (Hela cells; MTS absorbance 490, Conc 0.333333 uM): 80.9971 and 79.263 | cell viability normalised to control wells (single replicate) (Hela cells; MTS absorbance 490, Conc 1 uM): 85.9393 and 80.3035 | cell viability normalised to control wells (single replicate) (Hela cells; MTS absorbance 490, Conc 3 uM): 78.7428 and 78.4827 | Alpha signal normalised to Maximum/Minimum (inhibition) (His-tagged BCL-2; BCL-2 Rep-1, 0.000305176 uM, 0.000305176 µM): 59.5965 | inhibition at 0.000305176 µM (His-tagged BCL-2; BCL-2 Rep-1, 0.000305176 uM, read-out: Alpha signal normalised to Maximum/Minimum (inhibition)): 58.7% | Alpha signal normalised to Maximum/Minimum (inhibition) (His-tagged BCL-2; BCL-2 Rep-1, 0.0012207 uM, 0.0012207 µM): 60.0938 | inhibition at 0.0012207 µM (His-tagged BCL-2; BCL-2 Rep-1, 0.0012207 uM, read-out: Alpha signal normalised to Maximum/Minimum (inhibition)): 49.1% | Alpha signal normalised to Maximum/Minimum (inhibition) (His-tagged BCL-2; BCL-2 Rep-1, 0.00488281 uM, 0.00488281 µM): 80.812 | inhibition at 0.00488281 µM (His-tagged BCL-2; BCL-2 Rep-1, 0.00488281 uM, read-out: Alpha signal normalised to Maximum/Minimum (inhibition)): 82.4% | Alpha signal normalised to Maximum/Minimum (inhibition) (His-tagged BCL-2; BCL-2 Rep-1, 0.0195312 uM, 0.0195312 µM): 99.3807 | inhibition at 0.0195312 µM (His-tagged BCL-2; BCL-2 Rep-1, 0.0195312 uM, read-out: Alpha signal normalised to Maximum/Minimum (inhibition)): 98.6% | Alpha signal normalised to Maximum/Minimum (inhibition) (His-tagged BCL-2; BCL-2 Rep-1, 0.078125 uM, 0.078125 µM): 99.9974 | inhibition at 0.078125 µM (His-tagged BCL-2; BCL-2 Rep-1, 0.078125 uM, read-out: Alpha signal normalised to Maximum/Minimum (inhibition)): 100% | Alpha signal normalised to Maximum/Minimum (inhibition) (His-tagged BCL-2; BCL-2 Rep-1, 0.3125 uM, 0.3125 µM): 99.341 | inhibition at 0.3125 µM (His-tagged BCL-2; BCL-2 Rep-1, 0.3125 uM, read-out: Alpha signal normalised to Maximum/Minimum (inhibition)): 98.9% | Alpha signal normalised to Maximum/Minimum (inhibition) (His-tagged BCL-2; BCL-2 Rep-1, 1.25 uM, 1.25 µM): 100.024 | inhibition at 1.25 µM (His-tagged BCL-2; BCL-2 Rep-1, 1.25 uM, read-out: Alpha signal normalised to Maximum/Minimum (inhibition)): 99% | Alpha signal normalised to Maximum/Minimum (inhibition) (His-tagged BCL-2; BCL-2 Rep-1, 5 uM, 5 µM): 98.7813 | inhibition at 5 µM (His-tagged BCL-2; BCL-2 Rep-1, 5 uM, read-out: Alpha signal normalised to Maximum/Minimum (inhibition)): 99% | Alpha signal (raw counts) (His-tagged BCL-2; BCL-2 Rep-2, 0.00488281 uM): 125701 and 136831 | Alpha signal normalised to Maximum/Minimum (inhibition) (His-tagged BCL-2; BCL-2 Rep-2, 0.0195312 uM, 0.0195312 µM): 98.383 | inhibition at 0.0195312 µM (His-tagged BCL-2; BCL-2 Rep-2, 0.0195312 uM, read-out: Alpha signal normalised to Maximum/Minimum (inhibition)): 98.1% | Alpha signal normalised to Maximum/Minimum (inhibition) (His-tagged BCL-2; BCL-2 Rep-2, 0.078125 uM, 0.078125 µM): 99.1744 | inhibition at 0.078125 µM (His-tagged BCL-2; BCL-2 Rep-2, 0.078125 uM, read-out: Alpha signal normalised to Maximum/Minimum (inhibition)): 98.7% | Alpha signal normalised to Maximum/Minimum (inhibition) (His-tagged BCL-2; BCL-2 Rep-2, 0.3125 uM, 0.3125 µM): 99.3426 | inhibition at 0.3125 µM (His-tagged BCL-2; BCL-2 Rep-2, 0.3125 uM, read-out: Alpha signal normalised to Maximum/Minimum (inhibition)): 98.9% | Alpha signal normalised to Maximum/Minimum (inhibition) (His-tagged BCL-2; BCL-2 Rep-2, 1.25 uM, 1.25 µM): 99.8148 | inhibition at 1.25 µM (His-tagged BCL-2; BCL-2 Rep-2, 1.25 uM, read-out: Alpha signal normalised to Maximum/Minimum (inhibition)): 97.9% | Alpha signal normalised to Maximum/Minimum (inhibition) (His-tagged BCL-2; BCL-2 Rep-2, 5 uM, 5 µM): 100.138 | inhibition at 5 µM (His-tagged BCL-2; BCL-2 Rep-2, 5 uM, read-out: Alpha signal normalised to Maximum/Minimum (inhibition)): 98% | Alpha signal (raw counts) (His-tagged BCL-2; BCL-2 Rep-2, plate row C, 1.25 uM): 32515 and 16642 | Alpha signal (raw counts) (His-tagged BCL-2; BCL-2 Rep-2, plate row D, 0.3125 uM): 24362 and 20560 | Alpha signal (raw counts) (His-tagged BCL-2; BCL-2 Rep-2, plate row E, 0.078125 uM): 25987 and 21955 | Alpha signal (raw counts) (His-tagged BCL-2; BCL-2 Rep-2, plate row F, 0.0195312 uM): 31255 and 28520 | Alpha signal (raw counts) (His-tagged BCL-2; BCL-2 Rep-2, plate row H, 0.0012207 uM): 409647 and 386712 | Alpha signal (raw counts) (His-tagged BCL-2; BCL-2 Rep-2, plate row I, 0.000305176 uM): 513586 and 565907 | Alpha signal (raw counts) (His-tagged BCL-2; BCL-2 Rep-2, plate row J, 7.62939e-5 uM): 711623 and 736033 | Alpha signal (raw counts) (His-tagged BCL-2; BCL-2 Rep-2, plate row K, 1.90735e-5 uM): 598210 and 675191

Reference: PMC8617031, “Development of a BCL-xL and BCL-2 dual degrader with improved anti-leukemic activity,” (Nature Communications, 2021)
